Assay results: patent EP0753300B1, “Use of antioxidative steroids for the manufacture of pharmaceutical preparations for substition therapy in man” (priority 1995, dated 1997)

What was measured:
[1] = system: VCAM-1; assay: Inhibition of TNFα-induced VCAM-1 expression in cultured endothelial cells (histological assessment); type: cell-based, humanen Ursprungs; conditions: cultured human endothelial cells
Description: (§1) J. Clin. Endocrinol. Metab. 7:1619-1624 (1994) ausgeführt. Als Vergleich zu […] 17β-Estradiol, welches mit (x) gekennzeichnet wurde. Tabelle 1

[2] = system: ICAM-1; assay: Inhibition of TNFα-induced ICAM-1 expression in cultured endothelial cells (histological assessment); type: cell-based, humanen Ursprungs; set-up: key: +: wenig wirksam; ++: gut wirksam; +++: sehr gut wirksam; conditions: cultured human endothelial cells
Description: as §1

[3] = Adjuvant arthritis in male rats, oral, 21 days; type: in vivo, Lewis-Ratten; conditions: for Sekundärarthritis Score: 8 per group, group sum, max. 72 (arthritic control); for % Hemmung Primärarthritis max. Wirkung: swelling of injected left hind paw
Experimental: Die Adjuvansarthritis bei Lewis-Ratten ist ein gut bekanntes und etabliertes Modell für die chronische Rheumatoid-Arthritis des Menschen [Newbould BB: Chemotherapy of arthritis induced in rats by mycobacterial adjuvant. Br. J. Pharmacol. 21:127-136 (1963); Hirschelmann R: Die 6-Sulfanilamidoindazol-Arthritis und die Adjuvansarthritis der Ratte als Modelle zur Testung von Antiphlogistika. Dissertation B (Habil.-Schrift), Halle, 1976]
Die Arthritis wurde durch Injektion von 0,1 ml Freund'sches Adjuvans in die linke Hinterpfote ausgelöst. Prüfparameter waren die Hemmung der Schwellung der linken Hinterpfote und der Grad der Sekundärarthritis durch Beurteilung der Schwellung der drei anderen Pfoten. Tabelle 3

[4] = Carrageenin paw oedema of the male rat; type: in vivo, Ratte; conditions: 24 hours after provocation of the oedema, inflammation no longer acute
[5] = target: T1, Estrogen-Rezeptor (Oryctolagus cuniculus, UniProt G1SML6); assay: Estrogen receptor affinity, competitive binding with [3H]-Ethinylestradiol in uterus cytosol; set-up: species or system Kaninchen; conditions: quotient of IC50 of 17β-Estradiol and of test substance; rabbit uterus cytosol; tracer [3H]-Ethinylestradiol 3 nM; 0 to 4 °C, 18 h
T1 construct: Es wurden weibliche Kaninchen (weiße Neuseeländer) im Gewicht von 1,5 bis 2 kg in Barbituratnarkose getötet, die Uteri entnommen; from tissue; host or cells: rabbit uterus cytosol (100 000 g supernatant of the homogenate)
T1 sequence (G1SML6 1-598): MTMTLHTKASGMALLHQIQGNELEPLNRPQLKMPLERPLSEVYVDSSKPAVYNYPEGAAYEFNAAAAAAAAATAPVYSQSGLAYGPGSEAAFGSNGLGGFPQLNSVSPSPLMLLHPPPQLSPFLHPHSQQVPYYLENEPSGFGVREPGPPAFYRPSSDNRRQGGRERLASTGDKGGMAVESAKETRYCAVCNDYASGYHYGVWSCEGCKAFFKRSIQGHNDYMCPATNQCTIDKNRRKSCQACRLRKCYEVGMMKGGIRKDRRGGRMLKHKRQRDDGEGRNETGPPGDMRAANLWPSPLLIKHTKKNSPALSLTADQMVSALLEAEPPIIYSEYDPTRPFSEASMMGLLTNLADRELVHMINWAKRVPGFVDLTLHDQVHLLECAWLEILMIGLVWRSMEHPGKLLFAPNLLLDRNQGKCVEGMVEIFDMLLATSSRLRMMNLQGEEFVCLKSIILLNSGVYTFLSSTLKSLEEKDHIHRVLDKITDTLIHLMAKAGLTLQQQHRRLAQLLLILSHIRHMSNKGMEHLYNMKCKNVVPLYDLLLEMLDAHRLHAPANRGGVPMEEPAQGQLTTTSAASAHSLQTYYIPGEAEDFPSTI
Experimental: Die Affinität zum Estrogen Rezeptor wurde in Kaninchen-Uterus-Cytosol bestimmt durch competitive Bindung von ^3H-markiertem Tracer und der jeweils zu testenden Verbindungen in Konzentrationsreihen, die die IC50 einschlossen. […] Das nach Zentrifugieren bei 16 000 g und 100 000 g gewonnene Cytosol wurde portionsweise schockgefroren und bei -30 °C aufbewahrt. Das geeignet verdünnte Cytosol (Rezeptorkonzentration ca. 0,3 nM) wurde mit dem Tracer [^3H]-Ethinylestradiol (3nM) und den zu prüfenden Competitoren bei 0 bis 4 °C für 18 Stunden inkubiert. Der freie Tracer wurde durch Adsorption an Aktivkohle/Dextran (1 %/0,1 %) und Zentrifugation abgetrennt und die gebundene ^3H-Aktivität im Überstand gemessen.

[6] = Pentetrazol kindling, seizure stages in male mice; type: in vivo, Mäuse
Experimental: Aus Tabelle 2 ist ersichtlich, daß J 861 - 14,15α-Methylen-8-dehydro-17α-estradiol z.B. bereits in einer Dosierung von 1 mg/kg nach einmaliger oraler Gabe eine Stunde vor der krampfauslösenden Pentetrazol-Injektion an männlichen Mäusen das Krampfstadium 3 hemmt. In steigender Dosierung und bei längerer Substanzapplikation werden auch die anderen Krampfstadien beeinflußt.

[7] = type: in vivo, Mann
Description: Die aufgezeigten Systeme […] Studie an ä[…]. […] Alter von 52 bis 63 Jahren über 6 Monate […] Probanden nahm eine weitere Medikation ein. Bei 6 der 12 Probanden ergab […]-, Leber- und […] vor Beginn der Studie bei allen Probanden unauffällig. Auch die Plasma-[…] Testosteron > 12 nmol/[…] Testosteron > 0,2 nmol/[…] 6 Probanden […] OGTT erhöhte Gesamtcholesterol- und […] die In-vivo-Bestimmung der LDL-Cholesterol-Oxidation und die Hormonanalysen wurden zu Studienbeginn, danach wöchentlich und einen Tag […] und morgendlichem Fasten jeweils zwischen 8 und 10 Uhr morgens).

[8] = 1,0 mg/kg, single oral dose one hour before pentetrazol

SMILES: C[C@]12CC[C@@H]3c4ccc(O)cc4CC[C@H]3[C@@H]1CC[C@@H]2O [17β-Estradiol, reference compound]
- Hemmung der Expression von VCAM-1 [1]: + +
- Hemmung der Expression von ICAM-1 [2]: +
- Sekundärarthritis Score ([3]; 1 mg/kg oral): 47
- % Hemmung Primärarthritis max. Wirkung ([3]; 1 mg/kg oral): 21%
- Sekundärarthritis Score ([3]; 10 mg/kg oral): 36
- % Hemmung Primärarthritis max. Wirkung ([3]; 10 mg/kg oral): 35%

SMILES: O=C(O)Cc1ccccc1Nc1c(Cl)cccc1Cl [Diclofenac-Natrium]
- Hemmeffekte [4]: nur noch geringe Hemmeffekte

SMILES: C[C@]12CCC3=C(CCc4cc(O)ccc43)[C@@]13C[C@H]3C[C@H]2O [J 861, 14,15α-Methylen-8-dehydro-17α-estradiol]
- Hemmung der Expression von VCAM-1 [1]: + + +
- relative Bindungsaffinität zum Estrogen-Rezeptor (RBA) [5]: 32%
- Hemmung der Expression von ICAM-1 [2]: + + +
- Krampfstadien 1/2 Kl (Krampfindex gesenkt) ([6]; 10 mg/kg): -
- Krampfstadien 1/2 LZ[s] (Latenzzeit bis zur Ausprägung der Krämpfe erhöht) ([6]; 10 mg/kg): -
- Krampfstadien 3 Kl (Krampfindex gesenkt) ([6]; 10 mg/kg): ++
- Krampfstadien 3 LZ[s] (Latenzzeit bis zur Ausprägung der Krämpfe erhöht) ([6]; 10 mg/kg): -
- Krampfstadien 4/5/6 Kl (Krampfindex gesenkt) ([6]; 10 mg/kg): +
- Krampfstadien 4/5/6 LZ[s] (Latenzzeit bis zur Ausprägung der Krämpfe erhöht) ([6]; 10 mg/kg): ++
- Krampfstadien 1/2 Kl (Krampfindex gesenkt) ([6]; 100 mg/kg): -
- Krampfstadien 1/2 LZ[s] (Latenzzeit bis zur Ausprägung der Krämpfe erhöht) ([6]; 100 mg/kg): -
- Krampfstadien 3 Kl (Krampfindex gesenkt) ([6]; 100 mg/kg): ++
- Krampfstadien 3 LZ[s] (Latenzzeit bis zur Ausprägung der Krämpfe erhöht) ([6]; 100 mg/kg): -
- Krampfstadien 4/5/6 Kl (Krampfindex gesenkt) ([6]; 100 mg/kg): +
- Krampfstadien 4/5/6 LZ[s] (Latenzzeit bis zur Ausprägung der Krämpfe erhöht) ([6]; 100 mg/kg): ++
- Krampfstadien 1/2 Kl (Krampfindex gesenkt) [6, 8]: -
- Krampfstadien 1/2 LZ[s] (Latenzzeit bis zur Ausprägung der Krämpfe erhöht) [6, 8]: -
- Krampfstadien 3 Kl (Krampfindex gesenkt) [6, 8]: +++
- Krampfstadien 3 LZ[s] (Latenzzeit bis zur Ausprägung der Krämpfe erhöht) [6, 8]: -
- Krampfstadien 4/5/6 Kl (Krampfindex gesenkt) [6, 8]: +
- Krampfstadien 4/5/6 LZ[s] (Latenzzeit bis zur Ausprägung der Krämpfe erhöht) [6, 8]: +
- Sekundärarthritis Score ([3]; 1 mg/kg oral): 72
- % Hemmung Primärarthritis max. Wirkung ([3]; 1 mg/kg oral): 16%
- Sekundärarthritis Score ([3]; 10 mg/kg oral): 46
- % Hemmung Primärarthritis max. Wirkung ([3]; 10 mg/kg oral): 38%
- Sekundärarthritis Score ([3]; 25 mg/kg oral): 38
- % Hemmung Primärarthritis max. Wirkung ([3]; 25 mg/kg oral): 61%
- Sekundärarthritis Score ([3]; 50 mg/kg oral): 35
- % Hemmung Primärarthritis max. Wirkung ([3]; 50 mg/kg oral): 47%

SMILES: C[C@]12CCC3=C(CCc4cc(O)ccc43)[C@@H]1CC[C@H]2O [J 811, 8-Dehydro-17α-estradiol]
- relative Bindungsaffinität zum Estrogen-Rezeptor (RBA) [5]: 21%

SMILES: NC(=O)N1c2ccccc2C=Cc2ccccc21 [Carbamazepin, reference compound]
- Krampfstadien 1/2 Kl (Krampfindex gesenkt) ([6]; 24 mg/kg): -
- Krampfstadien 1/2 LZ[s] (Latenzzeit bis zur Ausprägung der Krämpfe erhöht) ([6]; 24 mg/kg): +
- Krampfstadien 3 Kl (Krampfindex gesenkt) ([6]; 24 mg/kg): -
- Krampfstadien 3 LZ[s] (Latenzzeit bis zur Ausprägung der Krämpfe erhöht) ([6]; 24 mg/kg): +
- Krampfstadien 4/5/6 Kl (Krampfindex gesenkt) ([6]; 24 mg/kg): +
- Krampfstadien 4/5/6 LZ[s] (Latenzzeit bis zur Ausprägung der Krämpfe erhöht) ([6]; 24 mg/kg): ++

SMILES: C[C@]12CC[C@@H]3c4ccc(O)cc4CC[C@H]3[C@@H]1CC[C@H]2O [17α-Estradiol]
- Hemmung der Expression von VCAM-1 [1]: + +
- Hemmung der Expression von ICAM-1 [2]: + +
- Sekundärarthritis Score ([3]; 1 mg/kg oral): 43
- % Hemmung Primärarthritis max. Wirkung ([3]; 1 mg/kg oral): 36%
- Sekundärarthritis Score ([3]; 10 mg/kg oral): 35
- % Hemmung Primärarthritis max. Wirkung ([3]; 10 mg/kg oral): 39%
- Einfluß auf die gewählten Hormonparameter ([7]; 2 mg daily, 6 months, older men, includes missing SHBG rise): nicht signifikant beeinflußt
- Schlafqualität und Libido ([7]; 2 mg daily, 6 months, reported by subjects): Verbesserung
- Freies Testosteron ([7]; Versuchsende, after 6 months 2 mg daily, 12 overweight men 52-63 years, Versuchsbeginn 0.32 ± 0.14): 0.33 ± 0.15 nmol/L
- DHEA ([7]; Versuchsende, after 6 months 2 mg daily, 12 overweight men 52-63 years, Versuchsbeginn 14.3 ± 10.6): 13.46 ± 8.13 nmol/L
- Gesamt-Testosteron ([7]; Versuchsende, after 6 months 2 mg daily, 12 overweight men 52-63 years, Versuchsbeginn 16.5 ± 4.6): 15.6 ± 5.1 nmol/L
- Insulin ([7]; Versuchsende, after 6 months 2 mg daily, 12 overweight men 52-63 years, Versuchsbeginn 17 ± 10): 15 ± 9 mlE/L
- SHBG ([7]; Versuchsende, after 6 months 2 mg daily, 12 overweight men 52-63 years, Versuchsbeginn 38 ± 17): 39 ± 18 nmol/L
- DHEAS ([7]; Versuchsende, after 6 months 2 mg daily, 12 overweight men 52-63 years, Versuchsbeginn 5412 ± 3711): 5660 ± 3292 nmol/L
- Lp(a) ([7]; Versuchsende, after 6 months 2 mg daily, Versuchsbeginn 6.0 ± 1.0): 5.7 ± 0.7 mg/dL
- LDL-Cholesterol ([7]; Versuchsende, after 6 months 2 mg daily, Versuchsbeginn 154 ± 10.5): 135 ± 5.2 mg/dL
- Gesamt-Cholesterol ([7]; Versuchsende, after 6 months 2 mg daily, Versuchsbeginn 225 ± 11.1, p<0.05): 195 ± 5.7 mg/dL
- Triglyceride ([7]; Versuchsende, after 6 months 2 mg daily, Versuchsbeginn 226 ± 31.1, p<0.05): 132 ± 1.5 mg/dL
- LDL-Cholesterol-Oxidation ([7]; older men under 17α-Estradiol, blood samples, figures not given): deutliche Verzögerung
